This note sets out measurements from patent US20250115600A1, “COVALENT MODIFIERS OF AKT1 AND USES THEREOF” (Terremoto Biosciences, Inc., priority 2022, published 2025).

Some results are limits rather than exact numbers.

The target of assay [1] is T1, AKT1 WT (Homo sapiens (Human), UniProt P31749). The assay can be described thus: Live cell target engagement (NanoBRET) in HEK293 cells. The assay is classed as cell-based. The conditions noted are these: HEK293, 2 hours at 37° C. For orientation: Bioluminescence resonance energy transfer reports proximity on the nanometre scale.
Target sequence in this assay (P31749 whole entry): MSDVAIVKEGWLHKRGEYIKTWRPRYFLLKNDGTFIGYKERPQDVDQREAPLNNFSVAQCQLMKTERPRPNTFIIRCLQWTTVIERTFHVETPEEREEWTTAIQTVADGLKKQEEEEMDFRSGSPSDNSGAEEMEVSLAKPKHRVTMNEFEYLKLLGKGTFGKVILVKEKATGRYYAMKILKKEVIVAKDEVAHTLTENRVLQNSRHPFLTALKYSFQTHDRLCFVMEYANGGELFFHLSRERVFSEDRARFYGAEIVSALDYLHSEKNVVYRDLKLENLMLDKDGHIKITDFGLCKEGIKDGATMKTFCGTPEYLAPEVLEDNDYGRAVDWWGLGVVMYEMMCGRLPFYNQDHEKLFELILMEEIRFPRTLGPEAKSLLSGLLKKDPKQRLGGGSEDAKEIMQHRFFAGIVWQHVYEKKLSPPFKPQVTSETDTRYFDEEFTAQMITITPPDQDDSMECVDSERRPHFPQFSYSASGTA
In the next assay the target is AKT2 (Homo sapiens (Human), UniProt P31751). The description is as above. To be noted: HEK293, 2 hours at 37° C. The assay is classed as cell-based.
A further assay deals with AKT1 E17K (Homo sapiens (Human), UniProt P31749, E17K). The description is as above. It is filed as cell-based. To be noted: for IC50: HEK293, 2 hours at 37° C.
Another assay deals with AKT1 E17K mutant protein (Homo sapiens (Human), UniProt P31749, E17K). In words: Intact mass spectrometry, covalent complex formation and ARQ-092 competition. The assay is classed as binding. The conditions noted are these: for covalent complex formation with AKT1 E17K mutant protein / covalent complex formation with AKT1 E17K mutant protein in presence of competitor: protein 1 μM, compound 1.5 μM, 2 hrs at 37° C., NaBH4 reduction; for covalent complex formation with AKT1 E17K mutant protein: absence of competitor; for covalent complex formation with AKT1 E17K mutant protein in presence of competitor: with ARQ092 (50 μM); for selectivity of complex formation, AKT1 E17K versus AKT1 WT: comparison of the spectra without competitor. How it is done:
(§1) AKT1 WT or AKT1 E17K (1 μM) was treated with a compound from Table 1 (1.5 μM) for 2 hrs at 37° C., with and without ARQ092 (50 μM) competitor as a specificity control. Reversible imines were captured by reductive amination with 5 mM NaBH4 for 5 min. Reduction reactions were quenched by diluting the sample in equal volume acetonitrile+1% TFA, then analyzed by LCMS.
(§2) FIGS. 1 to 25 provide intact mass spectra for AKT1 WT protein and AKT1 E17K mutant protein after incubation with compounds of the present disclosure and subsequent borohydride reduction. […] Further, FIGS. 1 to 10, 12, and 14 to 25 each provide intact mass spectra following the incubation of an AKT1 protein with a compound of the present disclosure both in the absence of a competitor molecule (i.e., ARQ-092, a molecule known to bind to and inhibit the function of AKT1); and in the presence of a significant stoichiometric excess of a competitor molecule.

Assay [2] has as its target T1, AKT1 WT. The assay is described as above. The assay is classed as binding. To be noted: protein 1 μM, compound 1.5 μM, 2 hrs at 37° C., NaBH4 reduction; for covalent complex formation with AKT1 WT protein: absence of competitor; for covalent complex formation with AKT1 WT protein in presence of competitor: with ARQ092 (50 μM). As for the experimental part:
as §1, §2
Target sequence in this assay (P31749 2-480): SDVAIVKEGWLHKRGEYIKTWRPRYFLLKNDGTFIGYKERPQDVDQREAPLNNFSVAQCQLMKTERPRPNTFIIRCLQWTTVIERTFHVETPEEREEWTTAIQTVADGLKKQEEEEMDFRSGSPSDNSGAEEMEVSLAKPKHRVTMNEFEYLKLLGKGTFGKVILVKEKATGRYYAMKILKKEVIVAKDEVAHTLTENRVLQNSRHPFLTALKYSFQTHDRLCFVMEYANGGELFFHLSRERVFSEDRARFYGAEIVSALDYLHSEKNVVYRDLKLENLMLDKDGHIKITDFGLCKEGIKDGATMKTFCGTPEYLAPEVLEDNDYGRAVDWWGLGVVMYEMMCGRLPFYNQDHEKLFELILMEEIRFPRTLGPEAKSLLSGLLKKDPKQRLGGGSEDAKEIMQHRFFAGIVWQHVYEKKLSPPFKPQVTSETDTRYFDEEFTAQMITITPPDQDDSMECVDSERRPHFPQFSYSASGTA

Chain of AKT1 E17K mutant protein (P31749 2-480 E17K): as the sequence (P31749 2-480) above, with E16K counted along it
Chain of AKT1 E17K (P31749 whole entry E17K): as the sequence (P31749 whole entry) above, with E17K counted along it
Chain of AKT2 (P31751 whole entry): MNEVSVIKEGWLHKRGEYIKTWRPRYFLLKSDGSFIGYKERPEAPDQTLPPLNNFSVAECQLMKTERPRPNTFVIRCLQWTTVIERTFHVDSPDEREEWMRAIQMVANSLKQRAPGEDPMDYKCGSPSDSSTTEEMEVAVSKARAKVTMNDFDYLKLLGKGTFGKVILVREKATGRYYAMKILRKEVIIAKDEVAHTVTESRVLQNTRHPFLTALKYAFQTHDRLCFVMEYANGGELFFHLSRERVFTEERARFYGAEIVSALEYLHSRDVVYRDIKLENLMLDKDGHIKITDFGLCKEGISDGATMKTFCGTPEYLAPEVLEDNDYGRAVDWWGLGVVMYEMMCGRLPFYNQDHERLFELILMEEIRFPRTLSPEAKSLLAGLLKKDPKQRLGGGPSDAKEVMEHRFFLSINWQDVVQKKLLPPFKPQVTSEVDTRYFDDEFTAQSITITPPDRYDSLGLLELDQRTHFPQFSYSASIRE

In general, IC50 refers to the concentration needed to halve the response being measured. Read a high IC50 as weaker potency in that assay. Turning to `Nc1ncccc1-c1nc2ccc(-c3ccccc3)nc2n1-c1ccc(CCNCc2ccc(C=O)c(O)c2)cc1` [Compound 72, 4-{[(2-{4-[2-(2-aminopyridin-3-yl)-5-phenylimidazo[4,5-b]pyridin-3-yl]phenyl}ethyl)amino]methyl}-2-hydroxybenzaldehyde], the IC50 at AKT1 WT [1] was < 100 nM. Moreover, on AKT2, the concentration for half-maximal inhibition (IC50) was < 100 nM. For the same compound, on AKT1 E17K, the “AKT1 E17K IC50: Selectivity vs AKT1 WT” value was determined as 1.7, the “AKT1 E17K IC50: Selectivity vs AKT2” value was found to be 18 and the IC50 was < 100 nM. On AKT1 E17K mutant protein, the “covalent complex formation with AKT1 E17K mutant protein” value is given as “significant presence of a covalent complex” and the “covalent complex formation with AKT1 E17K mutant protein in presence of competitor” value is “significantly smaller level of covalent complex formation”. Further, on AKT1 WT [2], the “covalent complex formation with AKT1 WT protein” value is “significant presence of a covalent complex” and the “covalent complex formation with AKT1 WT protein in presence of competitor” value is reported as “Essentially no covalent complex formation”.
As to `Nc1ncccc1-c1nc2ccc(-c3ccccc3)nc2n1-c1ccc(CNC(=O)c2cc(F)c(O)c(C=O)c2)cc1` [Compound 53, N-({4-[2-(2-aminopyridin-3-yl)-5-phenylimidazo[4,5-b]pyridin-3-yl]phenyl}methyl)-3-fluoro-5-formyl-4-hydroxybenzamide], the IC50 against AKT1 WT [1] was < 100 nM. Besides, the IC50 on AKT2 lay within 100 to 500 nM. Further, on AKT1 E17K, the “AKT1 E17K IC50: Selectivity vs AKT1 WT” value stood at 2.7, the “AKT1 E17K IC50: Selectivity vs AKT2” value worked out at 48 and the IC50 is < 100 nM. Moreover, at AKT1 E17K mutant protein, the “selectivity of complex formation, AKT1 E17K versus AKT1 WT” value is given as “selective for complex formation with AKT1 E17K”; the “covalent complex formation with AKT1 E17K mutant protein” value was “presence of a covalent complex”; the “covalent complex formation with AKT1 E17K mutant protein in presence of competitor” value is listed as “Essentially no covalent complex formation”. In addition, on AKT1 WT [2], the “covalent complex formation with AKT1 WT protein” value is “only peaks corresponding to unmodified WT protein” and the “covalent complex formation with AKT1 WT protein in presence of competitor” value is “only peaks corresponding to unmodified WT protein”.
Consider `Nc1ncccc1-c1nc2ccc(-c3ccccc3)nc2n1-c1ccc(CNCCc2ccc(C=O)c(O)c2F)cc1` [Compound 122, 4-{2-[({4-[2-(2-aminopyridin-3-yl)-5-phenylimidazo[4,5-b]pyridin-3-yl]phenyl}methyl)amino]ethyl}-3-fluoro-2-hydroxybenzaldehyde], for which, on AKT1 WT [1], the IC50 was < 100 nM. Also, the IC50 against AKT2 is < 100 nM. On AKT1 E17K, the “AKT1 E17K IC50: Selectivity vs AKT1 WT” value stood at 1.3, the “AKT1 E17K IC50: Selectivity vs AKT2” value turned out to be 3.2 and the concentration for half-maximal inhibition (IC50) was < 100 nM. On AKT1 E17K mutant protein, the “covalent complex formation with AKT1 E17K mutant protein” value is “presence of covalent complex” and the “covalent complex formation with AKT1 E17K mutant protein in presence of competitor” value was “Essentially no covalent complex formation”. Also, at AKT1 WT [2], the “covalent complex formation with AKT1 WT protein” value was “presence of covalent complex” and the “covalent complex formation with AKT1 WT protein in presence of competitor” value is reported as “Essentially no covalent complex formation”.
`Nc1ncccc1-c1nc2ccc(-c3ccccc3)nc2n1-c1ccc(CC(=O)NCc2ccc(C=O)c(O)c2)cc1` [Compound 58, 2-{4-[2-(2-aminopyridin-3-yl)-5-phenylimidazo[4,5-b]pyridin-3-yl]phenyl}-N-[(4-formyl-3-hydroxyphenyl)methyl]acetamide]: the IC50 against AKT1 WT [1] is < 100 nM. Besides, the IC50 against AKT2 is > 500 nM. For the same compound, at AKT1 E17K, the “AKT1 E17K IC50: Selectivity vs AKT1 WT” value is 8.6, the “AKT1 E17K IC50: Selectivity vs AKT2” value is 410 and the IC50 is < 100 nM. Further, at AKT1 E17K mutant protein, the “covalent complex formation with AKT1 E17K mutant protein” value is “significant presence of a covalent complex” and the “covalent complex formation with AKT1 E17K mutant protein in presence of competitor” value is “Essentially no covalent complex formation”. Moreover, at AKT1 WT [2], the “covalent complex formation with AKT1 WT protein” value is “presence of a covalent complex” and the “covalent complex formation with AKT1 WT protein in presence of competitor” value is “Essentially no covalent complex formation”.
As to `Nc1ncccc1-c1nc2ccc(-c3cccc(N4CCOCC4)c3)nc2n1-c1ccc(CNC(=O)c2ccc(O)c(C=O)c2)cc1` [Example 20, N-(4-(2-(2-aminopyridin-3-yl)-5-(3-morpholinophenyl)-3H-imidazo[4,5-b]pyridin-3-yl)benzyl)-3-formyl-4-hydroxybenzamide], at AKT1 WT [1], the IC50 was < 100 nM. In addition, the IC50 against AKT2 was < 100 nM. For the same compound, on AKT1 E17K, the “AKT1 E17K IC50: Selectivity vs AKT1 WT” value is 2, the “AKT1 E17K IC50: Selectivity vs AKT2” value stood at 6 and the IC50 is < 100 nM. Besides, at AKT1 E17K mutant protein, the “selectivity of complex formation, AKT1 E17K versus AKT1 WT” value is listed as “selective for complex formation with AKT1 E17K”; the “covalent complex formation with AKT1 E17K mutant protein” value is “significant presence of a covalent complex”; the “covalent complex formation with AKT1 E17K mutant protein in presence of competitor” value is given as “Essentially no covalent complex formation”. In addition, on AKT1 WT [2], the “covalent complex formation with AKT1 WT protein” value is on record as “presence of a covalent complex” and the “covalent complex formation with AKT1 WT protein in presence of competitor” value is recorded as “Essentially no covalent complex formation”.
Turning to `Nc1ncccc1-c1nc2cccnc2n1-c1ccc(CNCCc2ccc(C=O)c(O)c2)cc1` [Compound 114, 4-(2-((4-(2-(2-aminopyridin-3-yl)-3H-imidazo[4,5-b]pyridin-3-yl)benzyl)amino)ethyl)-2-hydroxybenzaldehyde], the IC50 against AKT1 WT [1] is 100 to 500 nM. Besides, the IC50 on AKT2 is > 500 nM. On AKT1 E17K, the “AKT1 E17K IC50: Selectivity vs AKT1 WT” value amounted to 2.2, the “AKT1 E17K IC50: Selectivity vs AKT2” value turned out to be 14 and the concentration for half-maximal inhibition (IC50) was < 100 nM. Besides, on AKT1 E17K mutant protein, the “covalent complex formation with AKT1 E17K mutant protein” value is reported as “presence of covalent complex” and the “covalent complex formation with AKT1 E17K mutant protein in presence of competitor” value was “Essentially no covalent complex formation”. Further, at AKT1 WT [2], the “covalent complex formation with AKT1 WT protein” value was “presence of covalent complex” and the “covalent complex formation with AKT1 WT protein in presence of competitor” value was “Essentially no covalent complex formation”.
Take `Nc1ncccc1-c1nc2ccc(-c3ccccc3)nc2n1-c1ccc(CNC(=O)C2(c3cnc(C=O)c(O)c3)CC2)cc1` [Compound 56, N-({4-[2-(2-aminopyridin-3-yl)-5-phenylimidazo[4,5-b]pyridin-3-yl]phenyl}methyl)-1-(6-formyl-5-hydroxypyridin-3-yl)cyclopropane-1-carboxamide]: the concentration for half-maximal inhibition (IC50) at AKT1 WT [1] was > 500 nM. Moreover, the IC50 at AKT2 is > 500 nM. Further, on AKT1 E17K, the “AKT1 E17K IC50: Selectivity vs AKT1 WT” value came to 93, the “AKT1 E17K IC50: Selectivity vs AKT2” value stood at 490 and the IC50 is < 100 nM. Further, at AKT1 E17K mutant protein, the “covalent complex formation with AKT1 E17K mutant protein” value was “small presence of a covalent complex” and the “covalent complex formation with AKT1 E17K mutant protein in presence of competitor” value is “Essentially no covalent complex formation”. Moreover, at AKT1 WT [2], the “covalent complex formation with AKT1 WT protein” value is “presence of a covalent complex” and the “covalent complex formation with AKT1 WT protein in presence of competitor” value is recorded as “Essentially no covalent complex formation”.
As to `Nc1ncccc1-c1nc2ccc(-c3ccccc3)nc2n1-c1ccc(CNC(=O)Cc2ccc(C=O)c(O)n2)cc1` [Compound 75, N-(4-(2-(2-aminopyridin-3-yl)-5-phenyl-3H-imidazo[4,5-b]pyridin-3-yl)benzyl)-2-(5-formyl-6-hydroxypyridin-2-yl)acetamide], the IC50 at AKT1 WT [1] fell in the range of 100 to 500 nM. At AKT2, the IC50 was > 500 nM. Further, on AKT1 E17K, the “AKT1 E17K IC50: Selectivity vs AKT1 WT” value came out at 1.7, the “AKT1 E17K IC50: Selectivity vs AKT2” value worked out at 3.7 and the half-inhibitory concentration (IC50) lay in the range of 100 to 500 nM. The “covalent complex formation with AKT1 E17K mutant protein” value on AKT1 E17K mutant protein is given as “only peaks corresponding to unmodified WT/mutant protein”. Also, on AKT1 WT [2], the “covalent complex formation with AKT1 WT protein” value was “only peaks corresponding to unmodified WT/mutant protein”.
